{"source": "paper PMC5624297", "about": "“Trichoplax adhaerens reveals a network of nuclear receptors sensitive to 9-cis-retinoic acid at the base of metazoan evolution” (PeerJ, 2017)", "molecular_target": "T1, TaRXR (T. adhaerens RXR; GST-TaRXR) (Trichoplax adhaerens, UniProt A0A290WNL1)", "T1 construct": "full-length RXR cDNA in pGEX-2T, E. coli BL21 pLysS; N-terminal GST fusion on glutathione beads or thrombin-cleaved; starts MEDRSFK (from printed primer)", "T1 sequence (A0A290WNL1 1-345)": "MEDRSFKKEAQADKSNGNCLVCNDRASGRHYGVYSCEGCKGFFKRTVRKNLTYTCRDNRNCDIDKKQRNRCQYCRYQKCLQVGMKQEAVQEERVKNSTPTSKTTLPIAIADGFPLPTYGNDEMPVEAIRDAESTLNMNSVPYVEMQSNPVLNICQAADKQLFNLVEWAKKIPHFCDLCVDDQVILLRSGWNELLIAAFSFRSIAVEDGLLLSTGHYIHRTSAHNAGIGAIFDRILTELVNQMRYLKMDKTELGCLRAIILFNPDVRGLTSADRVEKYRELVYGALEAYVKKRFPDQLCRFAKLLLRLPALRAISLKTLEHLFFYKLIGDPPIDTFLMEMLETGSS", "assay": "radioligand saturation binding (GST-TaRXR on beads) and competition (thrombin-cleaved TaRXR)", "details": "labelled compound (3H); 50 mM Tris-HCl pH 7.4, 1 mM EDTA, 120 mM KCl, 5 mM DTT, 8% glycerol, 0.3-0.5% CHAPS; 2 h on ice in dark", "data": [{"molecule": "CC1=C(/C=C/C(C)=C\\C=C\\C(C)=C\\C(=O)O)C(C)(C)CCC1", "note": "[9-cis-retinoic acid]", "values": [{"measurement": "radioligand saturation binding (GST-TaRXR on beads) and competition (thrombin-cl)", "result": "TaRXR prepared as thrombin cleaved TaRXR or GST-TaRXR binds 9-cis-RA with high affinity and specificity"}]}]}
